From PMC9024521, “4-Heteroaryl Substituted Amino-3,5-Dicyanopyridines as New Adenosine Receptor Ligands: Novel Insights on Structure-Activity Relationships and Perspectives” (Pharmaceuticals, 2022)

Key:
[1] = Solubility in testing medium; type: physicochemical; conditions: PBS + Tween 80 (2% w/w), pH 7.4, aqueous with cosolvent or surfactant or cyclodextrin
[2] = biological target: T1, hA1AR (Homo sapiens, UniProt P30542); assay: Competition binding, [3H]DPCPX, hA1 CHO cell membranes; conditions: displacement of [3H]DPCPX, hA1 CHO cells; mean ± SEM of four assays
T1 construct: host or cells: CHO cells
T1 sequence (P30542 1-326): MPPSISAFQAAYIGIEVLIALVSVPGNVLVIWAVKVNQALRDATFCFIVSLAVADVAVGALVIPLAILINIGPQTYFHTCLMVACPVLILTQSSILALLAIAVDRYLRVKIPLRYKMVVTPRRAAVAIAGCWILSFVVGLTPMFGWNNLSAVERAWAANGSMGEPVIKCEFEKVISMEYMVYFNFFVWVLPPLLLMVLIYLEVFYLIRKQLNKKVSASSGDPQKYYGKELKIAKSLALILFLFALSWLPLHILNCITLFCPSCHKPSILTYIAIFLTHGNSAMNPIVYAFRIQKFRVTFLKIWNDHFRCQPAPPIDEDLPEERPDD
Experimental: CHO cells transfected with hA1, hA2A, hA2B and hA3 ARs (Perkin Elmer, Boston, MA, USA) were grown adherently and maintained in Dulbecco’s modified Eagle’s medium with nutrient mixture F12, containing 10% fetal calf serum, penicillin (100 U/mL), streptomycin (100 μg/mL), L-glutamine (2 mM) and geneticine (G418; 0.2 mg/mL), at 37 °C, in 5% CO2/95% air, until their use in cAMP assays. For membrane preparation, the culture medium was removed, and the cells were washed with phosphate-buffered saline and scraped off T75 flasks in ice-cold hypotonic buffer (5 mM Tris HCl, 1 mM EDTA, pH 7.4). The cell suspension was homogenized with a Polytron, centrifuged for 30 min at 40,000× g, at 4 °C, and the resulting membrane pellet was used for competition binding experiments.
All synthesized compounds were tested for their affinity to hA1, hA2A and hA3 ARs. Competition experiments to hA1AR were carried out by incubating 1 nM [^3H]-8-cyclopentyl-1,3-dipropylxanthine ([^3H]-DPCPX) with membrane suspension (50 μg of protein/100 μL) and different concentrations of the examined compounds at 25 °C for 90 min in 50 mM Tris HCl, pH 7.4. Non-specific binding was defined as binding in the presence of 1 μM DPCPX and was always <10% of the total binding. Inhibition experiments to hA2A ARs were performed by incubating the radioligand [^3H]-4-(-2-[7-amino-2-{2-furyl}{1,2,4}triazolo{2,3-a} {1,3,5}triazin-5-yl-amino]ethyl)phenol ([^3H]-ZM241385) (1 nM) with the membrane suspension (50 μg of protein/100 μL) and different concentrations of the examined compounds for 60 min, at 4 °C, in 50 mM Tris HCl (pH 7.4), 10 mM MgCl2. Non-specific binding was determined in the presence of ZM241385 (1 μM) and was about 20% of the total binding. Competition binding experiments to A3ARs were carried out by incubating the membrane suspension (50 μg of protein/100 μL) with 0.5 nM [^125I]-N6-(4-aminobenzyl)-N-methylcarboxamidoadenosine ([^125I]-ABMECA) in the presence of different concentrations of the examined compounds for an incubation time of 120 min, at 4 °C, in 50 mM Tris HCl (pH 7.4), 10 mM MgCl2, 1 mM EDTA. Non-specific binding was defined as binding in the presence of 1 μM ABMECA and was always <10% of the total binding. Bound and free radioactivity were separated by filtering the assay mixture through Whatman GF/B glass-fiber filters, using a Brandel cell harvester (Brandel Instruments, Unterföhring, Germany). The filter bound radioactivity was counted by Packard Tri Carb 2810 TR scintillation counter (Perkin Elmer).
The protein concentration was determined according to a Bio-Rad method, with bovine albumin as a standard reference. Inhibitory binding constant (Ki) values were calculated from those of IC50 according to the Cheng–Prusoff equation, Ki = IC50/(1 + [C*]/KD*), where [C*] is the concentration of the radioligand, and KD* its dissociation constant. Ki and IC50 values were calculated by non-linear regression analysis, using the equation for a sigmoid concentration-response curve (Graph-PAD Prism, San Diego, CA, USA).

[3] = In vitro permeation, vertical Franz diffusion cell; type: in vitro ADME; conditions: cellulose nitrate membrane impregnated with lauryl alcohol, PBS pH 7.4 + Tween 80 2% w/w, 37 °C
Experimental: Compounds 1 and 5 were evaluated for their capability to penetrate the artificial membrane simulating the epidermal barrier. Permeation flux was assessed by using vertical Franz diffusion cells.
Compound assay was performed by HPLC (Merck Hitachi Elite LaChrom apparatus, Darmstadt, Germany), equipped with a L-2400 UV–Vis detector and an L-2130 isocratic pump. The mobile phase A was water, and the mobile phase B was methanol. Gradient steps were programmed as follows: A–B 60%–40% at time 0, ramped to 70% B in 3 min, held at 70% for 2 min and returned to initial conditions during 3 min. A Hibar Purospher® RP-8e (150 × 4.6 mm, 5 µm pore size) was the stationary phase. UV detection was performed at 292 nm. The injection volume was 20 µL, the flow rate was 1.2 mL/min and the column temperature was 40 ± 1 °C. Under these conditions, the compounds retention time was 5.30 ± 0.01 min. The method was validated for linearity (r^2 = 0.998; r^2 = 0.997), limit of quantification (3.03 µg/mL; 4.50 µg/mL) and limit of detection (0.91 µg/mL; 1.35 µg/mL) for P293BL and P297, respectively.
In vitro permeation studies were carried out by using vertical Franz diffusion cell (Rofarma, Gaggiano, Italy). […] A correction for the cumulative dilution, due to the sample replacement with an equal volume of fresh medium, was calculated. […]

solubility [1] [µg/mL] | Ki [2] [nM] | amount of permeated drug after 24 h [3] [µg/mL] | SMILES
40.6 ± 0.16 | 9.63 ± 1.61 | 15.0 ± 1.4 | N#Cc1c(N)nc(SCc2ncc[nH]2)c(C#N)c1-c1ccco1 [Compound 1, 2-Amino-4-(furan-2-yl)-6-[(1H-imidazol-2-ylmethyl)sulfanyl]pyridine-3,5-dicarbonitrile]
27.3 ± 2.52 | 2.5 ± 0.2 | 22.7 ± 1.0 | N#Cc1c(N)nc(SCc2ncc[nH]2)c(C#N)c1-c1cccs1 [Compound 5, 2-Amino-6-[(1H-imidazol-2-ylmethyl)sulfanyl]-4-(thiophen-2-yl)pyridine-3,5-dicarbonitrile]
